Data as given in PubChem BioAssay AID1508599 (Sanford-Burnham Center for Chemical Genomics, 2020).
Where “and” joins values, the source holds several entries; their conditions need not be identical. Identical values can stand only once. Calls of active or inactive are those of the source.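 Rule for the calls: active = IC50 under 30000 nM, about half a log past the top tested dose; inactive = the rest.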

Target: Baculoviral IAP repeat-containing protein 2 (Homo sapiens) (UniProt Q13490)
Assay: cIAP1 BIR3–SMAC binding inhibitors, SAR follow-up, biochemical (AID 1508599)
Details: cIAP1 BIR3 / rhodamine-SMAC peptide fluorescence polarization

Baculoviral IAP repeat-containing protein 2 (Homo sapiens), sequence (Q13490 whole entry, looked up): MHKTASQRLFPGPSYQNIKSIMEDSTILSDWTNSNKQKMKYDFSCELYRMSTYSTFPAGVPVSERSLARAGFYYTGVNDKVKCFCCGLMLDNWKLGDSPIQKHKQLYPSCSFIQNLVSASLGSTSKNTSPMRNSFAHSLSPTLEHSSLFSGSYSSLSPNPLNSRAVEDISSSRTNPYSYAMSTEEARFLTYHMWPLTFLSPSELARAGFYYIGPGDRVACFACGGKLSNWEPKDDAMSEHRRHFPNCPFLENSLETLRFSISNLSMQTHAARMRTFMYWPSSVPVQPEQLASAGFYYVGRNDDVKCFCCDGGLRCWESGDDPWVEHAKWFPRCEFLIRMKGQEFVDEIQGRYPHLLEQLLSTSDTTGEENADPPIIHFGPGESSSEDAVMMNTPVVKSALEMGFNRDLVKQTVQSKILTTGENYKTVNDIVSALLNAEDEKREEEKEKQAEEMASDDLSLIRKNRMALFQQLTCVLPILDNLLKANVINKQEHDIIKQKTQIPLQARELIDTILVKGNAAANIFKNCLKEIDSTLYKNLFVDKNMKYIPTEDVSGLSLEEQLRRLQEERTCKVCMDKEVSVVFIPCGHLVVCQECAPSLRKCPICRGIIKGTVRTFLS

Row | SMILES | IC50
1 | CN[C@@H](C)C(=O)N[C@H]1CC(=O)N[C@H]2CC(C)(C)C(C(=O)N[C@@H]3CCCc4ccccc43)N2C1=O (some centres not stated) | 2000 nM and 1790 nM
2 | CN[C@@H](C)C(=O)N[C@H]1CCO[C@H]2c3ccccc3C(C(=O)N[C@@H]3CCCc4ccccc43)N2C1=O (some centres not stated) | 8440 nM
3 | CN[C@@H](C)C(=O)N[C@H]1Cc2cc(O)ccc2[C@H]2CC(C)(C)C(C(=O)N[C@@H]3CCCc4ccccc43)N2C1=O (some centres not stated) | inactive
4 | CN[C@@H](C)C(=O)N[C@H]1CCO[C@H]2CC[C@@H](C(=O)N[C@@H]3CCCc4ccccc43)N2C1=O | 740 nM
5 | CN[C@@H](C)C(=O)N[C@H]1Cc2cc(O)c(O)cc2[C@H]2CC(C)(C)C(C(=O)N[C@@H]3CCCc4ccccc43)N2C1=O (some centres not stated) | > 100000 nM (inactive)
6 | CN[C@@H](C)C(=O)N[C@H]1Cc2c([nH]c3ccccc23)[C@H]2CCC(C(=O)N[C@@H]3CCCc4ccccc43)N2C1=O (some centres not stated) | 93 nM
7 | CN[C@@H](C)C(=O)N[C@H]1Cc2cccc(O)c2[C@H]2CC(C)(C)C(C(=O)N[C@@H]3CCCc4ccccc43)N2C1=O (some centres not stated) | 14900 nM
8 | CN[C@@H](C)C(=O)N[C@H]1CCO[C@H]2CC[C@@H](C(=O)n3ccc4ccccc43)N2C1=O | 1210 nM
9 | CN[C@@H](C)C(=O)N[C@H]1CCO[C@H]2CC3(CCCC3)C(C(=O)N[C@@H]3CCCc4ccccc43)N2C1=O (some centres not stated) | 1350 nM
10 | CN[C@@H](C)C(=O)N[C@H]1CCCN[C@H]2CCC(C(=O)Nc3cccc4ccccc34)N2C1=O (some centres not stated) | 21100 nM
11 | CN[C@@H](C)C(=O)N[C@H]1CCS(=O)(=O)[C@H]2CC[C@@H](C(=O)N[C@@H]3CCCc4ccccc43)N2C1=O | 11600 nM
12 | CN[C@@H](C)C(=O)N[C@H]1CCO[C@H]2CC[C@H](C(=O)n3ccc4ccccc43)N2C1=O | 147 nM
13 | CN[C@@H](C)C(=O)N[C@H]1CCO[C@H]2CC[C@H](C(=O)N[C@@H]3CCOc4ccccc43)N2C1=O | > 100000 nM (inactive)
14 | CN[C@@H](C)C(=O)N[C@H]1CCS(=O)(=O)[C@H]2CC[C@H](C(=O)N[C@@H]3CCCc4ccccc43)N2C1=O | > 100000 nM (inactive)
15 | CN[C@@H](C)C(=O)N[C@@H]1C(=O)N2C(C(=O)NC(c3ccccc3)c3ccccc3)CC[C@@H]2O[C@@H]1C (some centres not stated) | 235 nM
16 | CN[C@@H](C)C(=O)N[C@H]1CCN[C@H]2CCC(C(=O)N[C@@H]3CCCc4ccccc43)N2C1=O (some centres not stated) | 113 nM

Row | SMILES | IC50
17 | CN[C@@H](C)C(=O)N[C@H]1CCS(=O)(=O)[C@H]2CC(C)(C)[C@@H](C(=O)N[C@@H]3CCCc4ccccc43)N2C1=O | > 100000 nM (inactive)
18 | CN[C@@H](C)C(=O)N[C@H]1CCO[C@H]2CCC(C(=O)Nc3cccc4ccccc34)N2C1=O (some centres not stated) | 263 nM
19 | CN[C@@H](C)C(=O)N[C@H]1CCO[C@H]2CC[C@@H](C(=O)Nc3cccc4ccccc34)N2C1=O | 47 nM
20 | CN[C@@H](C)C(=O)N[C@H]1CCS[C@H]2CC[C@@H](C(=O)N[C@@H]3CCCc4ccccc43)N2C1=O | 140 nM
21 | CN[C@@H](C)C(=O)N[C@H]1CCO[C@H]2CCC(C(=O)N[C@H]3CCCc4ccccc43)N2C1=O (some centres not stated) | 72 nM
22 | CN[C@@H](C)C(=O)N[C@H]1CCO[C@H]2CC(C)(C)[C@@H](C(=O)N[C@@H]3CCCc4ccccc43)N2C1=O | 210 nM
23 | CN[C@@H](C)C(=O)N[C@@H]1C(=O)N2C(C(=O)Nc3cccc4ccccc34)CC[C@@H]2O[C@@H]1C (some centres not stated) | 78 nM
24 | CN[C@@H](C)C(=O)N[C@H]1CCS[C@H]2CC[C@H](C(=O)N[C@@H]3CCCc4ccccc43)N2C1=O | 1000 nM
25 | CN[C@@H](C)C(=O)N[C@H]1CCO[C@H]2CC(C)(C)C(C(=O)Nc3ccccc3SSc3ccccc3NC(=O)C3N4C(=O)[C@@H](NC(=O)[C@H](C)NC)CCO[C@H]4CC3(C)C)N2C1=O (some centres not stated) | 505 nM
26 | CN[C@@H](C)C(=O)N[C@H]1CCO[C@H]2CC[C@@H](C(=O)N[C@@H]3CCOc4ccccc43)N2C1=O | 1300 nM
27 | CN[C@@H](C)C(=O)N[C@H]1CCS[C@H]2CCC(C(=O)N[C@H]3CCCc4ccccc43)N2C1=O (some centres not stated) | 157 nM
28 | CN[C@@H](C)C(=O)N[C@H]1CCSC2CCCC(C(=O)N[C@@H]3CCCc4ccccc43)N2C1=O (some centres not stated) | 363 nM and 2520 nM and 605 nM
29 | CN[C@@H](C)C(=O)N[C@H]1CCCN(C(C)=O)C2CCC(C(=O)N[C@H]3CCCc4ccccc43)N2C1=O (some centres not stated) | 272 nM and 37 nM
30 | CN[C@@H](C)C(=O)N[C@H]1CCCN[C@H]2CCC(C(=O)N[C@H]3CCCc4ccccc43)N2C1=O (some centres not stated) | 789 nM
31 | CC(=O)N(C)[C@@H](C)C(=O)N[C@H]1CCCN(C(C)=O)[C@H]2CCC(C(=O)Nc3cccc4ccccc34)N2C1=O (some centres not stated) | 6850 nM
32 | CN[C@@H](C)C(=O)N[C@H]1CCO[C@H]2CCC(C(=O)NC(c3ccccc3)c3ccccc3)N2C1=O (some centres not stated) | 294 nM
